The text below walks through data of patent publication US10167299B2, “1-(3-aminopropyl) substituted cyclic amine compounds, preparation method therefor, and pharmaceutical compositions and uses thereof” (SHANGHAI INSTITUTE OF MATERIA MEDICA, CHINESE ACADEMY OF …, priority 2013, dated 2019).

This test addresses CCR5 (Homo sapiens (Human), UniProt P51681). Nature of the test: Calcium flux inhibition experiment. It counts as cell-based. The following applies: for calcium influx inhibition effect in words, versus positive control compounds: conclusion from Table 1. The source says: Experiment apparatus: FlexStation II
Experiment materials: HEK293/CCR5-Gα16 cell line, Fluo-4calcium dye (fluorescent-4 calcium ion dye) and FlexStation instrument.
Experiment theory: Activation of the receptor can cause the activation of Gα16 protein, thereby activating phospholipase C (PLC) to generate IP3 and DAG by establishing CCR5 and Ga16 co-transfected cell line. IP3 can bind to IP3 receptors on the endoplasmic reticulum and mitochondria in a cell, which can cause the release of intracellular calcium. Thus, determination of changes in intracellular calcium can be used as a method to detect CCR5 activation state. Fluo-4/AM is a fluorescent probe indicator for calcium used to measure calcium ion. As a non-polar lipid-soluble compound, after it enters into cells, AM group is dissociated to release Fluo-4 under the effect of cell lipolysis enzyme. Fluo-4 is a polar molecule and not easy to go through the lipid bilayer membrane, therefore it can stay within the cells for a long time. Ultimately, the level of activated Ga protein can be reflected by measuring the excited fluorescence intensity. If the screened compound can activate CCR5, it can greatly increase the calcium flux reaction; on the contrary, if the screened compound can antagonize CCR5, it can greatly reduce calcium flux reaction.
1. HEK293 cells which can stably express CCR5 were inoculated in a 96-well plate and incubated overnight.
2. The medium in each well into which cells were innoculated was removed and 40 μl/well of freshly prepared dye was added. The plate was placed in a 37° C. incubator and incubated for 40 minutes at constant temperature.
3. The medicament to be determined was diluted with calcium buffer to eight concentration gradients, which is 1×10^−4 M, 1×10^−5 M, 1×10^−6 M, 1×10^−7 M, 1×10^−8 M, 1×10^−9 M, 1×10^−10 M, and 1×10^−11 M, respectively, and homogeneously mixed.
4. The dye was removed. Freshly prepared calcium buffer was used to wash for one time, 50 μl of calcium buffer was added.
5. FlexStation II was used for detection. 25 μl of calcium buffer containing the medicament to be determined was added automatically from the 15th second.

Where [1] appears, read: HEK293/CCR5-Gα16 cell line, calcium flux, read-out: CCR5 IC50.

Read-outs that look alike come from different tables or passages of the source.

Sequence of CCR5 (P51681 whole entry): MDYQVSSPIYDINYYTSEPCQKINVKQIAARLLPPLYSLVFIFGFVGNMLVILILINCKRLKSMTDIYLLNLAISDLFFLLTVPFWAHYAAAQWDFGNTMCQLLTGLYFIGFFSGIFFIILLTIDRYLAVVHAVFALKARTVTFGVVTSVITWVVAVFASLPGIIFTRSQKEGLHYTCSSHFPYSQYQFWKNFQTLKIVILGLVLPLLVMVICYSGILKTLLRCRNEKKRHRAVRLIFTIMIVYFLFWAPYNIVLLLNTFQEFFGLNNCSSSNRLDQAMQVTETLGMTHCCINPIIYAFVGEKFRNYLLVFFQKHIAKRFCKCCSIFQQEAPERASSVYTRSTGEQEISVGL

A word on the IC50: it is the concentration at which inhibition is half-maximal. For `CC(=O)N[C@@H](CCN1C2CCC1CC(n1c(C)nc3c1CCN(C(C)=O)C3)C2)c1ccc(C#N)s1` (stereo partly drawn) [Compound 144, N-{(1S)-3-[(3-endo)-3-(5-acetyl-2-methyl-4,5,6,7-tetrahydro-1H-imidazo[4,5-c]pyridin-1-yl)-8-azabicyclo[3.2.1]octane-8-yl]-1-(5-cyanothiophen-2-yl)-propyl}acetamide], the IC50 under setting [1] came out at 8.53 nM. Turning to `Cc1nnc(C(C)C)n1C1CC2CCC(C1)N2CC[C@H](NC(=O)Cn1cnnn1)c1cccs1` (stereo partly drawn) [Compound 172, N-[(1S)-3-[exo-3-(3-isopropyl-5-methyl-4H-1,2,4-triazol-4-yl)-8-azabicyclo[3.2.1]octane-8-yl]-1-(thiophen-2-yl)propyl]-2-(1H-tetrazol-1-yl)acetamide], the “calcium influx inhibition effect in words, versus positive control compounds” value was “better than the positive control compounds”. In addition, the IC50 under setting [1] came out at 9.38 nM.

As to `CNC(=O)c1ccc([C@H](CCN2C3CCC2CC(n2c(C)nnc2C(C)C)C3)NC(=O)C2CCCCC2)s1` (stereo partly drawn) [Compound 141, 5-[(1S)-1-(cyclohexaneformamido)-3-[exo-3-(3-isopropyl-5-methyl-4H-1,2,4-triazol-4-yl)-8-azabicyclo[3.2.1]octane-8-yl]-propyl]-N-methylthiophene-2carboxamide], the “calcium influx inhibition effect in words, versus positive control compounds” value was “comparable to the positive control compounds”. Besides, the IC50 under setting [1] worked out at 8.36 nM.

As for `Cc1nnc(C(C)C)n1C1CC2CCC(C1)N2CC[C@H](NC(=O)C1CCN(S(C)(=O)=O)CC1)c1ccc(C#N)s1` (stereo partly drawn) [Compound 149, N-[(1S)-3-[exo-3-(3-isopropyl-5-methyl-4H-1,2,4-triazol-4-yl)-8-azabicyclo[3.2.1]octane-8-yl]-1-(5-cyanothiophen-2-yl)propyl]-1-methylsulfonylpiperidine-4-carboxamide], the IC50 stood at 7.89 nM and the “calcium influx inhibition effect in words, versus positive control compounds” value is “comparable to the positive control compounds”. The matching figures for `COc1ccc([C@H](CCN2C3CCC2CC(n2c(C)nnc2C(C)C)C3)NC(=O)Cc2nnn[nH]2)s1` (stereo partly drawn) [Compound 160, N-[(1S)-3-[exo-3-(3-isopropyl-5-methyl-4H-1,2,4-triazol-4-yl)-8-azabicyclo[3.2.1]octane-8-yl]-1-(5-methoxythiophen-2-yl)propyl]-2-(1H-tetrazol-5-yl)acetamide]: 1.34 nM and “better than the positive control compounds”. Consider `Cc1nnc(C(C)C)n1C1CC2CCC(C1)N2CC[C@H](NC(=O)C1CCCCC1)c1ccc(Cl)s1` (stereo partly drawn) [Compound 113, N-[(1S)-3-[exo-3-(3-isopropyl-5-methyl-4H-1,2,4-triazol-4-yl)-8-azabicyclo[3.2.1]octane-8-yl]-1-(5-chlorothiophen-2-yl)propyl]cyclohexane-1-carboxamide], for which the IC50 under setting [1] came to 8.14 nM. For the compound `Cc1nnc(C(C)C)n1C1CC2CCC(C1)N2CC[C@H](NC(=O)C1CCN(S(C)(=O)=O)CC1)c1cccs1` (stereo partly drawn) [Compound 146, N-[(1S)-3-[exo-3-(3-isopropyl-5-methyl-4H-1,2,4-triazol-4-yl)-8-azabicyclo[3.2.1]octane-8-yl]-1-(thiophen-2-yl)propyl]-1-methylsulfonylpiperidine-4-carboxamide], the “calcium influx inhibition effect in words, versus positive control compounds” value is “better than the positive control compounds”. Further, the IC50 under setting [1] was found to be 1.75 nM. For `Cc1nnc(C(C)C)n1C1CC2CCC(C1)N2CC[C@H](NC(=O)C1CCN(S(C)(=O)=O)CC1)c1ccc(F)s1` (stereo partly drawn) [Compound 151, N-[(1S)-3-[exo-3-(3-isopropyl-5-methyl-4H-1,2,4-triazol-4-yl)-8-azabicyclo[3.2.1]octane-8-yl]-1-(5-fluorothiophen-2-yl)propyl]-1-methylsulfonylpiperidine-4-carboxamide] the same measures were “better than the positive control compounds” and 3.45 nM.

Take `CCC(=O)N[C@@H](CCN1C2CCC1CC(n1c(C)nc3c1CCN(C(C)=O)C3)C2)c1nccs1` (stereo partly drawn) [Compound 124, N-{(1S)-3-[(3-endo)-3-(5-acetyl-2-methyl-4,5,6,7-tetrahydro-1H-imidazo[4,5-c]pyridin-1-yl)-8-azabicyclo[3.2.1]octane-8-yl]-1-(thiazol-2-yl)-propyl}propanamide]: the “calcium influx inhibition effect in words, versus positive control compounds” value is listed as “better than the positive control compounds”. Under setting [1], the concentration for half-maximal inhibition (IC50) was determined as 11.2 nM. With `Cc1nnc(C(C)C)n1C1CC2CCC(C1)N2CC[C@H](NC(=O)CC#N)c1ccc(C#N)s1` (stereo partly drawn) [Compound 167, N-[(1S)-3-[exo-3-(3-isopropyl-5-methyl-4H-1,2,4-triazol-4-yl)-8-azabicyclo[3.2.1]octane-8-yl]-1-(5-cyanothiophen-2-yl)propyl]-2-cyanoacetamide], the IC50 was determined as 7.98 nM. For `Cc1nnc(C(C)C)n1C1CC2CCC(C1)N2CC[C@H](NC(=O)C1CCCC1)c1ccc(Cl)s1` (stereo partly drawn) [Compound 114, N-[(1S)-3-[exo-3-(3-isopropyl-5-methyl-4H-1,2,4-triazol-4-yl)-8-azabicyclo[3.2.1]octane-8-yl]-1-(5-chlorothiophen-2-yl)propyl]cyclopentane-1-carboxamide], under setting [1], the IC50 turned out to be 9.27 nM. In the case of `Cc1nnc(C(C)C)n1C1CC2CCC(C1)N2CC[C@H](NC(=O)Cn1ncnn1)c1ccc(Cl)s1` (stereo partly drawn) [Compound 156, N-[(1S)-3-[exo-3-(3-isopropyl-5-methyl-4H-1,2,4-triazol-4-yl)-8-azabicyclo[3.2.1]octane-8-yl]-1-(5-chlorothiophen-2-yl)propyl]-2-(2H-tetrazol-2-yl)acetamide], the “calcium influx inhibition effect in words, versus positive control compounds” value is “comparable to the positive control compounds”. Also, under setting [1], the IC50 was determined as 9.85 nM.

In the case of `CC(=O)Nc1ccc([C@H](CCN2C3CCC2CC(n2c(C)nnc2C(C)C)C3)NC(=O)C2CCCCC2)s1` (stereo partly drawn) [Compound 138, N-[(1S)-3-[exo-3-(3-isopropyl-5-methyl-4H-1,2,4-triazol-4-yl)-8-azabicyclo[3.2.1]octane-8-yl]-1-(5-acetamidothiophen-2-yl)propyl]cyclohexane-1-carboxamide], the “calcium influx inhibition effect in words, versus positive control compounds” value is on record as “comparable to the positive control compounds”. For the same compound, the IC50 under setting [1] was 9.75 nM.

Take `Cc1ccc([C@H](CCN2C3CCC2CC(n2c(C)nnc2C(C)C)C3)NC(=O)Cn2ncnn2)s1` (stereo partly drawn) [Compound 153, N-[(1S)-3-[exo-3-(3-isopropyl-5-methyl-4H-1,2,4-triazol-4-yl)-8-azabicyclo[3.2.1]octane-8-yl]-1-(5-methylthiophen-2-yl)propyl]-2-(2H-tetrazol-2-yl)acetamide]: the IC50 under setting [1] was found to be 13.4 nM.

On to `Cc1nnc(C(C)C)n1C1CC2CCC(C1)N2CC[C@H](NC(=O)Cc1nnn[nH]1)c1ccc(Cl)s1` (stereo partly drawn) [Compound 162, N-[(1S)-3-[exo-3-(3-isopropyl-5-methyl-4H-1,2,4-triazol-4-yl)-8-azabicyclo[3.2.1]octane-8-yl]-1-(5-chlorothiophen-2-yl)propyl]-2-(1H-tetrazol-5-yl)acetamide], for which the “calcium influx inhibition effect in words, versus positive control compounds” value is on record as “better than the positive control compounds”. Under setting [1], the IC50 stood at 1.85 nM. Turning to `CC(=O)N[C@@H](CCN1C2CCC1CC(n1c(C)nc3c1CCN(C(=O)C(C)C)C3)C2)c1cc(C)cs1` (stereo partly drawn) [Compound 145, N-{(1S)-3-[(3-endo)-3-(5-isobutyryl-2-methyl-4,5,6,7-tetrahydro-1H-imidazo[4,5-c]pyridin-1-yl)-8-azabicyclo[3.2.1]octane-8-yl]-1-(4-methylthiophen-2-yl)-propyl}acetamide], under setting [1], the IC50 came out at 13.3 nM. Turning to `Cc1nnc(C(C)C)n1C1CC2CCC(C1)N2CC[C@H](NC(=O)Cc1nnn[nH]1)c1ccc(C#N)s1` (stereo partly drawn) [Compound 161, N-[(1S)-3-[exo-3-(3-isopropyl-5-methyl-4H-1,2,4-triazol-4-yl)-8-azabicyclo[3.2.1]octane-8-yl]-1-(5-cyanothiophen-2-yl)propyl]-2-(1H-tetrazol-5-yl)acetamide], the IC50 turned out to be 8.36 nM and the “calcium influx inhibition effect in words, versus positive control compounds” value was “comparable to the positive control compounds”.

Turning to `Cc1ccc([C@H](CCN2C3CCC2CC(n2c(C)nnc2C(C)C)C3)NC(=O)Cc2nnn[nH]2)s1` (stereo partly drawn) [Compound 159, N-[(1S)-3-[exo-3-(3-isopropyl-5-methyl-4H-1,2,4-triazol-4-yl)-8-azabicyclo[3.2.1]octane-8-yl]-1-(5-methylthiophen-2-yl)propyl]-2-(1H-tetrazol-5-yl)acetamide], the “calcium influx inhibition effect in words, versus positive control compounds” value is reported as “comparable to the positive control compounds”. Moreover, the IC50 under setting [1] came to 8.76 nM.
